# Results: patent US12474342B2, “Methods for treating cancer and the use of biomarkers as a predictor of clinical sensitivity to therapies” (CELGENE CORPORATION, priority 2016, dated 2025)
# What was measured:
# IKZF1 = IKZF1 (Homo sapiens, UniProt Q13422+Q96SW2)
# GSPT1 [1] = target: T1, GSPT1 (Homo sapiens, UniProt P15170+Q96SW2); assay: GSPT1 degradation in NB4 cell line; assay type: cell-based; parameters: endogenous in cells
# [2] = system: translational readthrough; assay: AML2 readthrough assay (Fluc/Nluc-G36A reporter), OCI-AML2; assay type: cell-based, human; details: 300 μg/ml G418 or 200 nM Compound D
# Procedure: (§1) It is known that amino acid starvation causes GCN2 activation, which phosphorylates eIF2α. Because GSPT1 mediates normal translation termination, it is hypothesized that depletion of GSPT1 by Compound D may cause readthrough of stop codons. Whether the translational readthrough induced by Compound D contributes to the increased levels of p-eIF2α was investigated. OCI-AML2 cells stably expressing the Fluc/Nluc-G36A readthrough reporter were treated with 300 μg/ml G418 or 200 nM Compound D for 2, 4, 6, 8, 10, 12, or 16 hours. The levels of p-eIF2α were measured by immunoblot analysis. AML2 readthrough assay was conducted to measure the readthrough reporter.
# p-eIF2α = p-eIF2α immunoblot, OCI-AML2; assay type: cell-based, human; details: 300 μg/ml G418 or 200 nM Compound D
# Procedure: as §1
# KG-1 cells = assay: Anti-proliferation CTG assay, KG-1; assay type: cell-based, human; details: KG1 parental or control shRNA cells, 0.0001 μM to 1 μM, two days
# Procedure: The effect of depletion of GSPT1 on the anti-proliferative effect of compound Compound D and Compound E was also determined in human acute myelogenous leukemia cell lines AML and KG1. […]
# MOLM-13 cells = assay: Anti-proliferation CTG assay, MOLM-13; assay type: cell-based, human; details: 48 hours
# Procedure: (§2) A plethora of AML cell lines were treated with serial dilutions of Compound D. IC50 value of the anti-proliferation effect of Compound D (as determined in 72-hour CTG assays) in each cell line is summarized in Table 1.
# (§3) The effect of overexpression of GSPT1 on the anti-proliferative effect of Compound D and Compound E was determined in human histiocytic lymphoma cell line U937 and human leukemia cell line MOLM13. Treatment compounds (e.g., Compound D or Compound E) were titrated from 0.001 μM to 10 μM. Cell proliferation was measured by CellTiter-Glo cell viability assay at 48 hours after treatment. […] However, when exogenous GSPT1 was overproduced via the EF1α promoter, as shown in FIGS. 5A-5D, the anti-proliferative effect of Compound D and Compound E reduced.
# U-937 cells = assay: Anti-proliferation CTG assay, U-937; assay type: cell-based, human; details: 48 hours
# Procedure: as §2, §3
# OCI-AML3 cells = assay: Anti-proliferation CTG assay, OCI-AML3; assay type: cell-based, human; details: AML3 parental or control shRNA cells, 0.0001 μM to 1 μM, two days
# Procedure: as §2
# The effect of depletion of GSPT1 on the anti-proliferative effect of compound Compound D and Compound E was also determined in human acute myelogenous leukemia cell lines AML and KG1. Cells were infected with lentiviral vectors expressing control shRNA, shGSPT1-1 or shGSPT1-3 for 7 days and then treated with DMSO, Compound D or Compound E in a titration from 0.0001 μM to 1 μM. Two days after treatment, cell proliferation was measured by CellTiter-Glo cell viability. […] Both shGSPT1-1 and shGSPT1-3 reduced the expression of GSPT1, eRF1, and slightly of CRBN.
# [3] = system: ATF3, DDIT3, cleaved Caspases, cleaved PARP; assay: UPR and apoptosis pathway components in KG1 cells; assay type: cell-based, human; details: KG1, 200 nM, 8 or 12 hours
# Procedure: Cells were treated with DMSO alone or 200 nM Compound D. After 2, 4, or 6 hours, the expression levels of various cellular components along UPR or apoptosis pathways were measured. […] Reduction of BIP indicates UPR.
# (§4) Cells were treated with DMSO alone, 200 nM Compound D, or 200 nM Compound E. After 8 or 12 hours, the expression levels of various cellular components along UPR or apoptosis pathways were measured. […] Reduction of BIP indicates UPR.
# (§5) To further investigate the timeline of cellular events upon Compound D treatment, KG1 cells were treated with DMSO alone or 200 nM Compound D. At 2, 4, 6, 8, 10, or 12 hours, the expression levels of various cellular components along ATF4 or apoptosis pathways were measured.
# GSPT1 [4] = target: T1, GSPT1; assay: GSPT1 protein reduction, western analysis, normal PBMCs; details: PBMC, 1 nM to 1000 nM, 20 hours
# Procedure: PBMC were treated with 1 nM, 10 nM, 100 nM, or 1000 nM of Compound D or Compound E for 20 hours.
# GSPT1 [5] = target: T1, GSPT1; assay: GSPT1 protein reduction, western analysis, KG-1; assay type: cell-based; parameters: reduction in GSPT1 protein level was evaluated in human normal PBMCs; endogenous in cells; host or cells: primary PBMCs from normal donors (ID 4328, 4379) and AML patients (ID 11SH, 09P6); details: KG1, 200 nM, 8 or 12 hours
# Procedure: as §4, §5
# In two sensitive AML cell lines, KG-1 and HL-60, both a concentration-dependent decrease in GSPT1 protein and an increase in RNA expression of ATF3, CHOP, and SRSF3 and SRSF6 NMD transcripts at the 8-hour time point were compared to caspase 3/7 activation (apoptosis) at the 24-hour (FIG. 30A [KG-1]; FIG. 30C [HL-60]) and 48-hour (FIG. 30B [KG-1]; FIG. 30D [HL-60]) time points.
# The reduction in the level of GSPT1 protein was concentration-dependent over the range of 3 to 1000 nM in eight of the nine AML cell lines and over the range of 300 to 1000 nM in one relatively insensitive AML cell line. The time course of the reduction in GSPT1 by Compound D also was studied for up to 48 hours. The progressive degradation of GSPT1 over the course of 1 to 20 hours was evident in the presence of all concentrations of Compound D studied from 3 to 300 nM in HNT-34, HL-60, and ML-2 cells, with little GSPT1 remaining by 20 hours at 100 or 300 nM Compound D in HNT-34 or HL-60 cells (FIG. 34 and FIG. 35C). Time-dependent reduction in GSPT1 was also observed in KG-1 and OCI-AML2 cells at 3 to 1000 nM Compound D, with little GSPT1 remaining in KG-1 cells at 100 to 300 nM at 24 hours or in OCI-AML2 cells at 300 and 1000 nM at 24 hours (FIG. 35D). Loss of GSPT1 occurred more slowly in Kasumi-1, AML-193, and F36-P cells.
# Compound D-mediated GSPT1 reduction at 8 hours was compared to induction of caspase 3/7 activation (apoptosis) at 12, 24, and 48 hour time points in these nine AML cell lines. […] A positive association (r^2=0.50; R=0.71; p value=4.86E-002) was observed between the level of GSPT1 reduction and apoptosis induction in the AML cell panel (FIG. 36), with >90% GSPT1 reduction correlating with induction of apoptosis.
# T1 sequence (P15170 1-637 isoform P15170-3): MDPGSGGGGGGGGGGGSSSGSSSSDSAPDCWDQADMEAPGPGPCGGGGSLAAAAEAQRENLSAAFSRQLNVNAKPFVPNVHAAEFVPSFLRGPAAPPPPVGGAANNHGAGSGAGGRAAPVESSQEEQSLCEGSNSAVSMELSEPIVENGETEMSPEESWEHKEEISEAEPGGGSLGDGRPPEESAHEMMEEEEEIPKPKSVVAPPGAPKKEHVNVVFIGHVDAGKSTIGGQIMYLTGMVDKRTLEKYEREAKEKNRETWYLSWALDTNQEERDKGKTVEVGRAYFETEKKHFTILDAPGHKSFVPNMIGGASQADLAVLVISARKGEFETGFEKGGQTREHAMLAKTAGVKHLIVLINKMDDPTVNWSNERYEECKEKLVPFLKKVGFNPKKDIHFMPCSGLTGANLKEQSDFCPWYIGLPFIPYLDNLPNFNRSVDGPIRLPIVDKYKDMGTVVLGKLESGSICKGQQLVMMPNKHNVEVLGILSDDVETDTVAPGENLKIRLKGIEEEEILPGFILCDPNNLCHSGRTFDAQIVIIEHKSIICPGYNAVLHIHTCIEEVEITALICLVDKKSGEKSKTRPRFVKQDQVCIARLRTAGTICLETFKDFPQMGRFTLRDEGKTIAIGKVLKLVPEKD
# T1 sequence (Q96SW2 whole entry): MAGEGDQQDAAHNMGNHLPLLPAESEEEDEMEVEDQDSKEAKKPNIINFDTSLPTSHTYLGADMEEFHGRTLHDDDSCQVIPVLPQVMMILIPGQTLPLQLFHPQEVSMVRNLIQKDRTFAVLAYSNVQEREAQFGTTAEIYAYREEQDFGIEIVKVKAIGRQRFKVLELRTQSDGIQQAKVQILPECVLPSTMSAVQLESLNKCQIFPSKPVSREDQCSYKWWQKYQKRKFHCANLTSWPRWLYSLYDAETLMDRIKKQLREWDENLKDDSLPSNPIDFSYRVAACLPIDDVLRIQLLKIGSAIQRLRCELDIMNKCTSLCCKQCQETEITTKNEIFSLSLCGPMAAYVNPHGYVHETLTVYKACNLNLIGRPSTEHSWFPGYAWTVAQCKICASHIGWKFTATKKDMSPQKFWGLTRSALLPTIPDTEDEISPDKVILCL
# T1 sequence (Q16531 whole entry partner): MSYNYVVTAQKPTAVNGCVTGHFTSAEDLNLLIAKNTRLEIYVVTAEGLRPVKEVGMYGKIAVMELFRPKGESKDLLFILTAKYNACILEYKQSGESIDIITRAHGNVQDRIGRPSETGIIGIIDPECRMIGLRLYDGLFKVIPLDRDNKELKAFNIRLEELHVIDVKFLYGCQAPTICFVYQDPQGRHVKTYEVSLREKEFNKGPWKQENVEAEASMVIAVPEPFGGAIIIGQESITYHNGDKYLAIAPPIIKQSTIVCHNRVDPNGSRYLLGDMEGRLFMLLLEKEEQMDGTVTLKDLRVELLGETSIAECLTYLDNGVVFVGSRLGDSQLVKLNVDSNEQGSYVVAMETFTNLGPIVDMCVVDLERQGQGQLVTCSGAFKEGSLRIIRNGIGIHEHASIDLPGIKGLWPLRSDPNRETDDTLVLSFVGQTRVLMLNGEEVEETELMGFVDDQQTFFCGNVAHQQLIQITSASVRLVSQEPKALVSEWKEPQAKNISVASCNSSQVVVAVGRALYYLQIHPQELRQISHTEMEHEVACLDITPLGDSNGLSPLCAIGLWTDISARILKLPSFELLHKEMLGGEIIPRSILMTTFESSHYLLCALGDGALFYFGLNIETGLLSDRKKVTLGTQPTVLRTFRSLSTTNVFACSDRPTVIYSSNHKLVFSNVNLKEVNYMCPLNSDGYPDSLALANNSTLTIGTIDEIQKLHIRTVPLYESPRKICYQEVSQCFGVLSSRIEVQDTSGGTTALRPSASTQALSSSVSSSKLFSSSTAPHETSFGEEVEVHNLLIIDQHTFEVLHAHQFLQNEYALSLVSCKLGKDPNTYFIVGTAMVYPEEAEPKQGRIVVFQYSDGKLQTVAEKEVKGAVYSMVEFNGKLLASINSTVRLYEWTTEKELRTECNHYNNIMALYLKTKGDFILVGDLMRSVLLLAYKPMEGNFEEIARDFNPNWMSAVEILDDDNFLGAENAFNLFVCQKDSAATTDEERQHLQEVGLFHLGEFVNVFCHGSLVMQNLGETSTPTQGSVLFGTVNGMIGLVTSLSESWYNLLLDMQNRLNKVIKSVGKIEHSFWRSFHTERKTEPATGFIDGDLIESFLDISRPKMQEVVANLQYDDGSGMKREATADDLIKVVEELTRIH
# IKZF1, sequence (Q13422 whole entry): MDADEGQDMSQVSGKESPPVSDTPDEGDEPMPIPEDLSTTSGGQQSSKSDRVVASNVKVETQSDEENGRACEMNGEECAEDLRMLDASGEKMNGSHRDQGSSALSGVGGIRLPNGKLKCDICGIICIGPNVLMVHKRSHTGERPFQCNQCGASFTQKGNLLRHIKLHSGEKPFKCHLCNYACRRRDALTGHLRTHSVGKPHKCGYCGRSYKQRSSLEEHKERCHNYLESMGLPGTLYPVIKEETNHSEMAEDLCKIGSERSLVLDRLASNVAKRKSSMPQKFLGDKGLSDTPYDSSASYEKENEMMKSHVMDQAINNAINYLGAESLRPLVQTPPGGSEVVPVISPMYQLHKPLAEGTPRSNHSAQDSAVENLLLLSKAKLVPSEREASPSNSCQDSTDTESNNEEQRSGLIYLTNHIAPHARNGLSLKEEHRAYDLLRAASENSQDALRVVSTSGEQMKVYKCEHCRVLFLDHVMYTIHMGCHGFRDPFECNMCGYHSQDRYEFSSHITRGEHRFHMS
# IKZF1, sequence (Q96SW2 whole entry): as the sequence (Q96SW2 whole entry) above
# IKZF1, sequence (Q16531 whole entry partner): as the sequence (Q16531 whole entry partner) above
structure (smiles),measurement,setting,value
"Nc1cccc2c1C(=O)N(C1CCC(=O)NC1=O)C2=O (stereo not shown) [pomalidomide, reference compound]",effect on IKZF1 level,IKZF1,induced degradation of IKZF1 at much lower concentrations than Compound D
same,effect on GSPT1 level,GSPT1 [1],no significant effect
"CN[C@@H]1[C@@H](O)[C@@H](O[C@@H]2[C@@H](O)[C@H](O[C@H]3O[C@H]([C@@H](C)O)[C@@H](O)[C@H](O)[C@H]3N)[C@@H](N)C[C@H]2N)OC[C@]1(C)O [Compound G418, G418, reference compound]",translational readthrough,[2],induced translational readthrough at a comparable level
same,levels of p-eIF2α,p-eIF2α,little effect
"O=C1CCC(N2Cc3cc(CNC(=O)C(F)(F)c4ccc(F)cc4)ccc3C2=O)C(=O)N1 (stereo not shown) [Compound E, N-((2-(2,6-dioxopiperidin-3-yl)-1-oxoisoindolin-5-yl)methyl)-2,2-difluoro-2-(4-fluorophenyl)acetamide]",cell proliferation (CellTiter-Glo),KG-1 cells,"exhibited anti-proliferative effect, particularly at high concentration"
same,anti-proliferative effect,MOLM-13 cells; MOLM13 CRBN -/- cells,completely abolished
same,cell proliferation (CellTiter-Glo),"MOLM-13 cells; MOLM13 parental cells, 0.001 μM to 10 μM",inhibited cell proliferation
same,anti-proliferative effect,U-937 cells; U937 CRBN -/- cells,completely abolished
same,cell proliferation (CellTiter-Glo),"U-937 cells; U937 parental cells, 0.001 μM to 10 μM",inhibited cell proliferation
same,cell proliferation (CellTiter-Glo),OCI-AML3 cells,"exhibited anti-proliferative effect, particularly at high concentration"
same,"level of ATF3, DDIT3, cleaved Caspase-3, cleaved Caspase-8, and cleaved PARP",[3],increased the level
same,expression of GSPT1,GSPT1 [4],decreased the expression of GSPT1
same,degradation of GSPT1,GSPT1 [5],induced degradation
